In the supplement of paper PMC10307832:

How the values were obtained:
Experiment in all cases: relative viability (nuclei count vs DMSO), 5 days (fraction); higher = more cells survive
[1] = compound: CC1=CC=C(C=C1)C(=O)CN2C3=C(CCCC3)SC2=N [Pifithrin_alpha] + Nc1nc2[nH]cc(CCc3ccc(C(=O)N[C@@H](CCC(=O)O)C(=O)O)cc3)c2c(=O)[nH]1 [Pemetrexed] (partner 0.2 µM)
Method in brief: (§1)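 Each reported value is a median over duplicate plates. It expresses relative viability: treated-well nuclei count divided by vehicle-well nuclei count. Lung cancer cell lines in 1536-well plates were dosed by pin tool a day after seeding, alone with one drug or with a fixed anchor-drug dose plus five library-drug doses (not always all listed) in √10 steps, and nuclei were counted after 5 days.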

[2] = compound: Nc1nc(Nc2ccc3c(c2)CC[C@@H](N2CCCC2)CC3)nn1-c1cc2c(nn1)-c1ccccc1CCC2 [Bemcentinib] + Cc1cc(Nc2cc(N3CCN(C)CC3)nc(Sc3ccc(NC(=O)C4CC4)cc3)n2)n[nH]1 [Tozasertib] (partner 0.1 µM)
Method in brief: as §1

[3] = compound: CC1=CC=C(C=C1)C(=O)CN2C3=C(CCCC3)SC2=N [Pifithrin_alpha] + O=C(CCCCCCC(=O)Nc1ccccc1)NO [Vorinostat] (partner 1 µM)
Method in brief: as §1

[4] = compound: Nc1nc(Nc2ccc3c(c2)CC[C@@H](N2CCCC2)CC3)nn1-c1cc2c(nn1)-c1ccccc1CCC2 [Bemcentinib] + O=C(c1cc(Cc2n[nH]c(=O)c3ccccc23)ccc1F)N1CCN(C(=O)C2CC2)CC1 [Olaparib] (partner 8 µM)
Method in brief: as §1

| Cell Line | relative viability ([1]; first compound 1 µM) | relative viability ([1]; first compound 3.162 µM) | relative viability ([1]; first compound 10 µM) | relative viability ([1]; first compound 31.62 µM) | relative viability ([1]; first compound 100 µM) | relative viability ([2]; first compound 0.1265 µM) | relative viability ([2]; first compound 0.4 µM) | relative viability ([2]; first compound 1.265 µM) | relative viability ([2]; first compound 4 µM) | relative viability ([3]; first compound 1 µM) | relative viability ([3]; first compound 3.162 µM) | relative viability ([3]; first compound 10 µM) | relative viability ([3]; first compound 31.62 µM) | relative viability ([3]; first compound 100 µM) | relative viability ([4]; first compound 0.04 µM) | relative viability ([4]; first compound 0.1265 µM) | relative viability ([4]; first compound 0.4 µM) | relative viability ([4]; first compound 1.265 µM) | relative viability ([4]; first compound 4 µM) | relative viability ([2]; first compound 0.04 µM) |
| --- | --- | --- | --- | --- | --- | --- | --- | --- | --- | --- | --- | --- | --- | --- | --- | --- | --- | --- | --- | --- |
| NCI-H3122 | 0.224 | 0.198 | 0.184 | 0.166 | 0.203 | 0.488 | 0.402 | 0.427 | 0.381 | 0.878 | 0.978 | 1.03 | 0.828 | 0.898 | 0.651 | 0.652 | 0.637 | 0.678 | 0.68 | – |
| NCI-H1975 | 0.285 | 0.277 | 0.27 | 0.212 | 0.228 | 0.881 | 1.02 | 0.672 | 0.818 | 0.626 | 0.708 | 0.579 | 0.54 | 0.529 | 0.803 | 0.954 | 0.951 | 0.849 | 0.749 | 0.689 |
| NCI-H661 | 0.937 | 0.922 | 0.962 | 0.834 | 0.888 | 0.344 | 0.338 | 0.34 | 0.339 | 0.8 | 0.805 | 0.788 | 0.662 | 0.771 | 0.692 | 0.782 | 0.789 | 0.738 | 0.763 | 0.357 |
| NCI-H1651 | 0.211 | 0.632 | 0.553 | 0.539 | 0.666 | 0.835 | 0.87 | 0.77 | 0.635 | 0.148 | 0.553 | 0.476 | 0.533 | 0.563 | 0.201 | 0.204 | 0.187 | 0.189 | 0.191 | 0.671 |
| NCI-H647 | 0.166 | 0.164 | 0.197 | 0.156 | 0.162 | 0.286 | 0.28 | 0.317 | 0.246 | 0.514 | 0.565 | 0.592 | 0.482 | 0.53 | 0.479 | 0.666 | 0.698 | 0.602 | 0.624 | 0.304 |
| HCC-78 | – | 0.937 | 0.941 | 0.901 | 0.944 | 0.445 | 0.421 | – | 0.355 | – | 0.506 | 0.519 | 0.407 | 0.467 | 0.919 | 0.794 | 0.971 | 0.808 | 0.833 | 0.43 |
| NCI-H2126 | 0.448 | 0.656 | 0.625 | 0.56 | 0.643 | 0.822 | 0.788 | 0.856 | 0.837 | 0.433 | 0.719 | 0.738 | 0.716 | 0.763 | 0.999 | 0.931 | 0.948 | 1.01 | 0.916 | 0.896 |
| NCI-H522 | 0.805 | 0.978 | 1.02 | 0.796 | 1.05 | 0.598 | 0.638 | 0.62 | 0.538 | 0.777 | 0.992 | 0.993 | 0.759 | 0.919 | 0.739 | 0.696 | 0.593 | 0.556 | 0.652 | 0.561 |
